# Measurements: patent US9359308B2, “Pyrazine kinase inhibitors” (Portola Pharmaceuticals, Inc., priority 2011, dated 2016)
# Molecular target: T1, full length active recombinant SYK enzyme (Homo sapiens, UniProt P43405)
# T1 construct: full length active recombinant SYK enzyme (Millipore, Calif.); purchased Millipore
# Assay: Inhibition of Syk tyrosine phosphorylation activity (LANCE TR-FRET kinase assay)
# Assay type: biochemical
# Conditions: activity in the Syk assays, class symbols
# Method in brief: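 1 nM full-length active recombinant SYK phosphorylated 550 nM biotin-DEEDYESP-OH with 100 μM ATP in 50 mM Tris pH 7.5, 5 mM MgCl2, 1 mM DTT and 3% DMSO for 1 h at room temperature. After EDTA quench, Eu-anti-phosphotyrosine/SA-APC TR-FRET was read after 1 h. IC50s came from non-linear regression.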
row,IC50 [nM],SMILES
1,10 to 100,"COc1ncc(Nc2nc(N[C@@H]3CCCC[C@@H]3N)cnc2C(N)=O)cn1 [Example 305, 5-((1R,2S)-2-aminocyclohexylamino)-3-(2-methoxypyrimidin-5-ylamino)pyrazine-2-carboxamide]"
2,10 to 100,"NC(=O)c1ncc(N[C@@H]2CCCC(F)(F)[C@@H]2N)nc1Nc1cccc(F)c1 [Example 372, 5-((1R,2R)-2-amino-3,3-difluorocyclohexylamino)-3-(3-fluorophenylamino)pyrazine-2-carboxamide]"
3,> 1000,"CC(C)C[C@@H](Nc1cnc(C(N)=O)c(Nc2ccn(C)n2)n1)C(N)=O [Example 180, (R)-5-(1-amino-4-methyl-1-oxopentan-2-ylamino)-3-(1-methyl-1H-pyrazol-3-ylamino)pyrazine-2-carboxamide]"
4,10 to 100,"CC[C@@H](Nc1cnc(C(N)=O)c(Nc2cc(COC)ns2)n1)C(N)=O [Example 257, (R)-5-(1-amino-1-oxobutan-2-ylamino)-3-(3-(methoxymethyl)isothiazol-5-ylamino)pyrazine-2-carboxamide]"
5,10 to 100,"CCc1ccc(Nc2nc(N[C@H](CC)C(N)=O)cnc2C(N)=O)cn1 [Example 340, (R)-5-(1-amino-1-oxobutan-2-ylamino)-3-(6-ethylpyridin-3-ylamino)pyrazine-2-carboxamide]"
6,1 to 10,"COc1cncc(Nc2nc(N[C@@H]3CCOC[C@@H]3N)cnc2C(N)=O)c1 [Example 358, 5-((3R,4R)-3-aminotetrahydro-2H-pyran-4-ylamino)-3-(5-methoxypyridin-3-ylamino)pyrazine-2-carboxamide]"
7,10 to 100,"NC(=O)c1ncc(N[C@@H]2CCCC(F)(F)[C@@H]2N)nc1Nc1ccccc1 [Example 17, 5-((1R,2R)-2-amino-3,3-difluorocyclohexylamino)-3-(phenylamino)pyrazine-2-carboxamide]"
8,10 to 100,"Cc1cc(Nc2nc(N[C@@H]3CCCC(F)(F)[C@@H]3N)cnc2C(N)=O)sn1 [Example 23, 5-((1R,2R)-2-amino-3,3-difluorocyclohexylamino)-3-(3-methylisothiazol-5-ylamino)pyrazine-2-carboxamide]"
9,10 to 100,"CC[C@@H](Nc1cnc(C(N)=O)c(Nc2cccc3cnccc23)n1)C(N)=O [Example 378, (R)-5-(1-amino-1-oxobutan-2-ylamino)-3-(isoquinolin-5-ylamino)pyrazine-2-carboxamide]"
10,10 to 100,"CC(C)[C@@H](Nc1cnc(C(N)=O)c(Nc2cnc3cccnc3c2)n1)C(N)=O [Example 193, (R)-3-(1,5-naphthyridin-3-ylamino)-5-(1-amino-3-methyl-1-oxobutan-2-ylamino)pyrazine-2-carboxamide]"
11,10 to 100,"CC[C@@H](Nc1cnc(C(N)=O)c(Nc2cncc(Cl)c2)n1)C(N)=O [Example 223, (R)-5-(1-amino-1-oxobutan-2-ylamino)-3-(5-chloropyridin-3-ylamino)pyrazine-2-carboxamide]"
12,100 to 1000,"CC(C)[C@@H](Nc1cnc(C(N)=O)c(Nc2ccc(CN3CCOCC3)cc2)n1)C(N)=O [Example 148, (R)-5-(1-amino-3-methyl-1-oxobutan-2-ylamino)-3-(4-(morpholinomethyl)phenylamino)pyrazine-2-carboxamide]"
13,100 to 1000,"NC(=O)c1ncc(N[C@H]2CCCNC2)nc1Nc1cnc2ccccc2c1 [Example 57, (S)-5-(piperidin-3-ylamino)-3-(quinolin-3-ylamino)pyrazine-2-carboxamide]"
14,1 to 10,"CC[C@@H](Nc1cnc(C(N)=O)c(Nc2ccc(-n3ccnc3)cc2)n1)C(N)=O [Example 80, (R)-3-(4-(1H-imidazol-1-yl)phenylamino)-5-(1-amino-1-oxobutan-2-ylamino)-pyrazine-2-carboxamide]"
15,10 to 100,"COc1ccc(Nc2nc(N[C@@H](C(N)=O)C(C)C)cnc2C(N)=O)cc1OC [Example 141, (R)-5-(1-amino-3-methyl-1-oxobutan-2-ylamino)-3-(3,4-dimethoxyphenylamino)pyrazine-2-carboxamide]"
16,1 to 10,"CC(C)C[C@@H](Nc1cnc(C(N)=O)c(Nc2ccnc(N(C)C)c2)n1)C(N)=O [Example 335, (R)-5-(1-amino-4-methyl-1-oxopentan-2-ylamino)-3-(2-(dimethylamino)pyridin-4-ylamino)pyrazine-2-carboxamide]"
17,1 to 10,"NC(=O)c1ncc(N[C@H](Cc2ccccc2)C(N)=O)nc1Nc1ccc2ncccc2c1 [Example 31, (R)-5-(1-amino-1-oxo-3-phenylpropan-2-ylamino)-3-(quinolin-6-ylamino)pyrazine-2-carboxamide]"
18,10 to 100,"CC(C)[C@@H](Nc1cnc(C(N)=O)c(Nc2cncc(Cl)c2)n1)C(N)=O [Example 222, (R)-5-(1-amino-3-methyl-1-oxobutan-2-ylamino)-3-(5-chloropyridin-3-ylamino)pyrazine-2-carboxamide]"
19,1 to 10,"NC(=O)c1ncc(N[C@@H]2CCCC[C@@H]2N)nc1Nc1cc(N2CCOCC2)cc(-n2cccn2)c1 [Example 431, 5-(((1R,2S)-2-aminocyclohexyl)amino)-3-((3-morpholino-5-(1H-pyrazol-1-yl)phenyl)amino)pyrazine-2-carboxamide]"
20,1 to 10,"CC[C@@H](Nc1cnc(C(N)=O)c(Nc2cnc3ncccc3c2)n1)C(N)=O [Example 380, (R)-3-(1,8-naphthyridin-3-ylamino)-5-(1-amino-1-oxobutan-2-ylamino)pyrazine-2-carboxamide]"
21,10 to 100,"CC[C@@H](Nc1cnc(C(N)=O)c(Nc2ccc(-c3nnco3)cc2)n1)C(N)=O [Example 27, (R)-3-(4-(1,3,4-oxadiazol-2-yl)phenylamino)-5-(1-amino-1-oxobutan-2-ylamino)pyrazine-2-carboxamide]"
22,1 to 10,"CC(C)[C@@H](Nc1cnc(C(N)=O)c(Nc2cnc3ccccc3c2)n1)C(N)=O [Example 66, (R)-5-(1-amino-3-methyl-1-oxobutan-2-ylamino)-3-(quinolin-3-ylamino)pyrazine-2-carboxamide]"
23,1 to 10,"NC(=O)c1ncc(N[C@@H]2CCCC(F)(F)[C@@H]2N)nc1Nc1cc(C2CC2)ns1 [Example 242, 5-((1R,2R)-2-amino-3,3-difluorocyclohexylamino)-3-(3-cyclopropylisothiazol-5-ylamino)pyrazine-2-carboxamide]"
24,< 1,"NC(=O)c1ncc(N[C@@H]2CCCC[C@@H]2N)nc1Nc1cccnc1 [Example 417, 5-(((1R,2S)-2-aminocyclohexyl)amino)-3-(pyridin-3-ylamino)pyrazine-2-carboxamide]"
25,1 to 10,"Cn1ccc2c(Nc3nc(N[C@@H]4CCCC(F)(F)[C@@H]4N)cnc3C(N)=O)cccc21 [Example 392, 5-((1R,2R)-2-amino-3,3-difluorocyclohexylamino)-3-(1-methyl-1H-indol-4-ylamino)pyrazine-2-carboxamide]"
26,10 to 100,"CC(C)(C)[C@@H](Nc1cnc(C(N)=O)c(Nc2cnc3cccnc3c2)n1)C(N)=O [Example 237, (R)-3-(1,5-naphthyridin-3-ylamino)-5-(1-amino-3,3-dimethyl-1-oxobutan-2-ylamino)pyrazine-2-carboxamide]"
27,1 to 10,"Cc1cncc(Nc2nc(N[C@H](CC(C)C)C(N)=O)cnc2C(N)=O)c1 [Example 83, (R)-5-(1-amino-4-methyl-1-oxopentan-2-ylamino)-3-(5-methylpyridin-3-ylamino)pyrazine-2-carboxamide]"
